Results published in paper PMC9572860, “Antiprotozoal Activity of Azabicyclo-Nonanes Linked to Tetrazole or Sulfonamide Cores” (Molecules, 2022).
Where two headings read alike, the source gives them in different places.

Columns and labels:
[1] = test system: P. falciparum NF54; assay: In vitro microplate 3H-hypoxanthine incorporation assay against P. falciparum NF54; format: cell-based, Plasmodium falciparum; conditions: for S.I. = IC50 (Cyt.)/IC50 (P.f. NF54): L-6 cytotoxicity over P.f. NF54; for IC50: Plasmodium falciparum, NF54 strain sensitive to chloroquine and pyrimethamine, erythrocytic stages, average of four determinations, read-out: P. Falciparum NF54 IC50
Experimental: (§1) Compounds were tested for their activities against strains of P. falciparum and T. b. rhodesiense via microplate assays. Their cytotoxicity was determined with rat skeletal myoblasts (L-6 cells). Chloroquine and melarsoprol served as standards (Table 1).
(§2) In vitro activity against erythrocytic stages of P. falciparum was determined using a ^3H-hypoxanthine incorporation assay, using the drug-sensitive NF54 strain [21] or the chloroquine- and pyrimethamine-resistant K1 strain [22]. Compounds were dissolved in DMSO at 10 mg/mL and added to parasite cultures incubated in RPMI 1640 medium without hypoxanthine, supplemented with HEPES (5.94 g/L), NaHCO3 (2.1 g/L), neomycin (100 U/mL), Albumax (5 g/L) and washed human red cells A+ at 2.5% hematocrit (0.3% parasitemia). Serial drug dilutions of 11 three-fold dilution steps covering a range from 100 to 0.002 µg/mL were prepared. The 96-well plates were incubated in a humidified atmosphere at 37 °C; 4% CO2, 3% O2, 93% N2. After 48 h, 0.05 mL of ^3H-hypoxanthine (=0.5 µCi) was added to each well of the plate. The plates were incubated for an additional 24 h under the same conditions. The plates were then harvested with a Betaplate cell harvester (Wallac, Zurich, Switzerland). The red blood cells were transferred onto a glass fiber filter and washed with distilled water. The dried filters were inserted into a plastic foil with 10 mL of scintillation fluid and counted in a Betaplate liquid scintillation counter (Wallac, Zurich, Switzerland). IC50 values were calculated from sigmoidal inhibition curves by linear regression using Microsoft Excel. Chloroquine (Sigma C6628) was used as control.

[2] = test system: T. b. rhodesiense STIB 900; assay: In vitro microplate resazurin assay against T. brucei rhodesiense; format: cell-based, Trypanosoma brucei rhodesiense; conditions: for S.I. = IC50 (Cyt.)/IC50 (T.b.r.): L-6 cytotoxicity over T.b.r.; for IC50: Trypanosoma brucei, read-out: T. Brucei Rhodesiense IC50
Experimental: as §1
Minimum essential medium (50 µL) supplemented with 25 mM HEPES, 1 g/L additional glucose, 1% MEM nonessential amino acids (100×), 0.2 mM 2-mercaptoethanol, 1 mM Na-pyruvate and 15% heat inactivated horse serum was added to each well of a 96-well microtiter plate. Serial drug dilutions of 11 three-fold dilution steps covering a range from 100 to 0.002 μg/mL were prepared. Then, 4 × 10^3 bloodstream forms of T. b. rhodesiense STIB 900 in 50 µL was added to each well and the plate incubated at 37 °C under a 5% CO2 atmosphere for 70 h. Ten microliters of resazurin solution (resazurin, 12.5 mg in 100 mL double-distilled water) was then added to each well and incubation continued for an additional 2–4 h. The plates were then read with a Spectramax Gemini XS microplate fluorometer (Molecular Devices Cooperation, Sunnyvale, CA, USA) using an excitation wavelength of 536 nm and an emission wavelength of 588 nm. Data were analyzed with the graphic program Softmax Pro (Molecular Devices Cooperation, Sunnyvale, CA, USA), which calculated IC50 values by linear regression and 4-parameter logistic regression from the sigmoidal dose inhibition curves. Melarsoprol (Arsobal Sanofi-Aventis, received from WHO) was used as control.

[3] = In vitro cytotoxicity with L-6 cells; format: cell-based, rat
Experimental: as §1
Assays were performed in 96-well microtiter plates, each well containing 0.1 mL of RPMI 1640 medium supplemented with 1% L-glutamine (200 mM) and 10% fetal bovine serum and 4000 L-6 cells (a primary cell line derived from rat skeletal myoblasts, ATCC CRL-1458™). Serial drug dilutions of 11 three-fold dilution steps covering a range from 100 to 0.002 μg/mL were prepared. After 70 h of incubation, the plates were inspected under an inverted microscope to assure the growth of the controls and sterile conditions. Then, 0.01 mL resazurin solution (resazurin, 12.5 mg in 100 ml double-distilled water) was added to each well and the plates incubated for another 2 h. The plates were read with a Spectramax Gemini XS microplate fluorometer (Molecular Devices Cooperation, Sunnyvale, CA, USA) using an excitation wavelength of 536 nm and an emission wavelength of 588 nm. The IC50 values were calculated by linear regression from the sigmoidal dose inhibition curves using SoftmaxPro software (Molecular Devices Cooperation, Sunnyvale, CA, USA). Podophyllotoxin (Sigma P4405) was used as control.

[4] = test system: P. falciparum K1; assay: In vitro microplate 3H-hypoxanthine incorporation assay against P. falciparum K1; format: cell-based, Plasmodium falciparum; conditions: for S.I. = IC50 (Cyt.)/IC50 (P.f. K1): L-6 cytotoxicity over P.f. K1; for IC50: Plasmodium falciparum, K1 strain resistant to chloroquine and pyrimethamine, average of four determinations, read-out: P. Falciparum K1 IC50
Experimental: as §1, §2

[5] = STIB 900 bloodstream forms, average of four determinations

Compound | S.I. = IC50 (Cyt.)/IC50 (P.f. NF54) [1] | IC50 [1] [nM] | S.I. = IC50 (Cyt.)/IC50 (T.b.r.) [2] | IC50 [2, 5] [nM] | IC50 at 72 h ([3]; rat) [nM] | S.I. = IC50 (Cyt.)/IC50 (P.f. K1) [4] | IC50 [4] [nM] | IC50 [2] [nM] | IC50 at 72 h ([3]; rat skeletal myoblasts, average of four determinations, read-out: Cytotox. L-6 Cells IC50) [nM]
CC(C)(C)n1nnnc1[C@H](NCCN1CC2C(c3ccccc3)CC(N3CCCCC3)(CC2c2ccccc2)C1)c1ccccc1 (mixture of isomers) [Compound 12A, rac-N-[(1R)-(1-tert-Butyl-1H-tetrazol-5-yl])(phenyl)methyl]-2-[(6R,9R)-6,9-diphenyl-1-(piperidin-1-yl)-3-azabicyclo[3.2.2]nonan-3-yl]ethan-1-amine] | 11.2 | 252 | 1.29 | 2200 | 2830 | – | – | – | –
NCCN1CCC2(N3CCCC3)C[C@H](c3ccccc3)C1[C@@H](c1ccccc1)C2 (racemic) [Compound 8, rac-(7R,8R)-2-[7,8-Diphenyl-5-(pyrrolidin-1-yl)-2-azabicyclo[3.2.2]nonan-2-yl]ethan-1-amine] | – | – | 22.8 | 1130 | 25800 | 47.8 | 540 | – | –
CC(C)(C)C(NCCN1CC2[C@@H](c3ccccc3)CC(N3CCCCC3)(C[C@@H]2c2ccccc2)C1)c1nnnn1C(C)(C)C (mixture of isomers) [Compound 11B, rac-(1R)-1-(1-tert-Butyl-1H-tetrazol-5-yl)-2,2-dimethyl-N-{2-[(6S,9S)-6,9-diphenyl-1-(piperidin-1-yl)-3-azabicyclo[3.2.2]nonan-3-yl]ethyl}propan-1-amine] | 4.99 | 1320 | 1.34 | 4920 | 6590 | – | – | – | –
Cc1ccc(S(=O)(=O)NCCN2CCC3(N4CCCC4)C[C@H](c4ccccc4)C2[C@@H](c2ccccc2)C3)cc1 (racemic) [Compound 20, rac-(7R,8R)-4-Methyl-N-{2-[7,8-diphenyl-5-(pyrrolidin-1-yl)-2-azabicyclo[3.2.2]nonan-2-yl]ethyl}benzenesulfonamide] | 14.7 | 487 | 11.0 | 647 | 7150 | – | – | – | –
Nc1nc(N)nc(Nc2ccc([As]3SCC(CO)S3)cc2)n1 (centres unmarked) [MEL, melarsoprol, reference compound] | – | – | 864 | – | – | – | – | 9 | 7780
Cc1ccc(C(NCCN2CC3C(c4ccccc4)CC(N4CCCCC4)(CC3c3ccccc3)C2)c2nnnn2C(C)(C)C)cc1 (stereo in doubt) [Compound 13B, rac-N-[(1R)-(1-tert-butyl-1H-tetrazol-5-yl)(p-tolyl)methyl]-2-[(6S,9S)-6,9-diphenyl-1-(piperidin-1-yl)-3-azabicyclo[3.2.2]nonan-3-yl]ethan-1-amine] | 3.03 | 680 | 2.06 | 1000 | 2060 | – | – | – | –
NCCN1CCC2(N3CCCCC3)C[C@H](c3ccccc3)C1[C@@H](c1ccccc1)C2 (racemic) [Compound 7, rac-(7R,8R)-2-[7,8-Diphenyl-5-(piperidin-1-yl)-2-azabicyclo[3.2.2]nonan-2-yl]ethan-1-amine] | – | – | 8.66 | 1940 | 16800 | 93.3 | 180 | – | –
O=S(=O)(c1ccc(Cl)cc1)N1CCC2(N3CCCC3)C[C@H](c3ccccc3)C1[C@@H](c1ccccc1)C2 (racemic) [Compound 18, rac-(7R,8R)-2-(4-Chlorobenzenesulfonyl)-7,8-diphenyl-5-(pyrrolidin-1-yl)-2-azabicyclo[3.2.2]nonane] | 10.4 | 606 | 5.28 | 1190 | 6290 | – | – | – | –
CC(C)(C)n1nnnc1CNCCN1CC2[C@H](c3ccccc3)CC(N3CCCCC3)(C[C@H]2c2ccccc2)C1 (racemic) [Compound 14, rac-(6R,9R)-N-[(1-tert-Butyl-1H-tetrazol-5-yl)methyl]-2-[6,9-diphenyl-1-(piperidin-1-yl)-3-azabicyclo[3.2.2]nonan-3-yl]ethan-1-amine] | 8.76 | 1940 | 14.17 | 1200 | 17000 | – | – | – | –
CC(C)(C)C(NCCN1CC2[C@H](c3ccccc3)CC(N3CCCCC3)(C[C@H]2c2ccccc2)C1)c1nnnn1C(C)(C)C (mixture of isomers) [Compound 11A, rac-(1R)-1-(1-tert-Butyl-1H-tetrazol-5-yl)-2,2-dimethyl-N-{2-[(6R,9R)-6,9-diphenyl-1-(piperidin-1-yl)-3-azabicyclo[3.2.2]nonan-3-yl]ethyl}propan-1-amine] | 6.75 | 2980 | 3.04 | 6610 | 20100 | – | – | – | –
CC(C)(C)n1nnnc1C(NCCN1CC2C(c3ccccc3)CC(N3CCCCC3)(CC2c2ccccc2)C1)c1ccccc1 (racemic) [Compound 12B, rac-N-[(1R)-1-tert-Butyl-1H-tetrazol-5-yl])(phenyl)methyl]-2-[(6S,9S)-6,9-diphenyl-1-(piperidin-1-yl)-3-azabicyclo[3.2.2]nonan-3-yl]ethan-1-amine] | 1.92 | 1330 | 1.68 | 1520 | 2560 | – | – | – | –
CC(C)(C)n1nnnc1CN(CCN1CC2[C@H](c3ccccc3)CC(N3CCCCC3)(C[C@H]2c2ccccc2)C1)Cc1nnnn1C(C)(C)C (racemic) [Compound 15, rac-(6R,9R)-N,N-bis[(1-tert-Butyl-1H-tetrazol-5-yl)methyl]-2-[6,9-diphenyl-1-(piperidin-1-yl)-3-azabicyclo[3.2.2]nonan-3-yl]ethan-1-amine] | 5.62 | 742 | 3.21 | 1300 | 4170 | – | – | – | –
Cc1ccc(S(=O)(=O)NCCN2CCC3(N4CCCCC4)C[C@H](c4ccccc4)C2[C@@H](c2ccccc2)C3)cc1 (racemic) [Compound 19, rac-(7R,8R)-4-Methyl-N-[2-(7,8-diphenyl-5-(piperidin-1-yl)-2-azabicyclo[3.2.2]nonan-2-yl)ethyl]benzenesulfonamide] | 18.7 | 577 | 9.39 | 1150 | 10800 | – | – | – | –
Cc1ccc([C@@H](NCCN2CC3C(c4ccccc4)CC(N4CCCCC4)(CC3c3ccccc3)C2)c2nnnn2C(C)(C)C)cc1 (mixture of isomers) [Compound 13A, rac-N-[(1R)-(1-tert-Butyl-1H-tetrazol-5-yl)(p-tolyl)methyl]-2-[(6R,9R)-6,9-diphenyl-1-(piperidin-1-yl)-3-azabicyclo[3.2.2]nonan-3-yl]ethan-1-amine] | 5.72 | 446 | 7.75 | 329 | 2550 | – | – | – | –
